Source: patent publication US7452887B2, “Quinoline- and isoquinoline-based compounds exhibiting ATP-utilizing enzyme inhibitory activity, and compositions, and uses thereof” (Amphora Discovery Corporation, priority 2004, dated 2008)

Tests used:
Assay in all cases: HTS ATP-utilizing enzyme assay, off-chip mobility-shift (Caliper HTS 250)
Conditions in all cases: test compound 10 μM, kinase listed = active (greater than six-sigma from the mean activity of inactive compounds)
MAPKAPK2 = MAPKAPK2 (Homo sapiens, UniProt P49137); type: biochemical
Chain of MAPKAPK2 (P49137 whole entry): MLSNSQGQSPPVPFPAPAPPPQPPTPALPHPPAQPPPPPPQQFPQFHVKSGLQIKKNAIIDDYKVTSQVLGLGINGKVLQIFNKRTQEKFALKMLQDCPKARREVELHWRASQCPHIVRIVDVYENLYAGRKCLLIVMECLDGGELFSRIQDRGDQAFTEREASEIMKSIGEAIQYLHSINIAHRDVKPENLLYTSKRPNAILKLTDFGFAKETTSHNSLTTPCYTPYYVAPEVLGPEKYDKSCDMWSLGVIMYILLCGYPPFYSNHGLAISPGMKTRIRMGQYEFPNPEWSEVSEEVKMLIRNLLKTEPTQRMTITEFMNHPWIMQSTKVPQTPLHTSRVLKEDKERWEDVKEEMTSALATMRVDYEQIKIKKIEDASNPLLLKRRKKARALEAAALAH
In short: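 Single-point screen of test compound at 10 μM against MAPKAPK2 with peptide substrate in HEPES pH 7.5 buffer (Triton X-100, BSA), 2.5 h at 20-22 °C. Substrate-to-phosphopeptide ratio was read by off-chip microfluidic mobility shift; EDTA and DMSO wells defined 100% and 0% controls, hits by six-sigma limits.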

GSK3-α = GSK3-α (Homo sapiens, UniProt P49840); type: biochemical
Chain of GSK3-α (P49840 whole entry): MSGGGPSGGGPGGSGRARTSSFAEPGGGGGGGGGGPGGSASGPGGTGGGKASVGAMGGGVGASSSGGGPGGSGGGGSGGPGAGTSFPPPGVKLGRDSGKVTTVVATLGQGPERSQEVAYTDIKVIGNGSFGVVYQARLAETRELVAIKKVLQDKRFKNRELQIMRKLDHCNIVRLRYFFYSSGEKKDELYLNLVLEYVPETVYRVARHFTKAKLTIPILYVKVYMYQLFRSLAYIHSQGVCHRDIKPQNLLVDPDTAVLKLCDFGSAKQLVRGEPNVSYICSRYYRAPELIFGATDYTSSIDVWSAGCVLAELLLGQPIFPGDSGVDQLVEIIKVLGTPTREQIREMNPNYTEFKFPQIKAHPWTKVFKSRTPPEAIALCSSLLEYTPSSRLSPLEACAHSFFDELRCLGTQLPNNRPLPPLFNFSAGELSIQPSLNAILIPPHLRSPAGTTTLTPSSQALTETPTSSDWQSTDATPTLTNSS
In short: (§1)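 Steps: compound added at 10 μM final; enzyme then peptide substrate added in HEPES pH 7.5, Triton X-100, BSA buffer; incubation 2.5 hrs at 20° C. to 22° C.; EDTA quench; microfluidic separation of substrate and phosphoproduct. DMSO wells set 0% inhibition, EDTA wells 100%.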

GSK-3-β = GSK-3-β (Homo sapiens, UniProt P49841); type: biochemical
Chain of GSK-3-β (P49841 whole entry): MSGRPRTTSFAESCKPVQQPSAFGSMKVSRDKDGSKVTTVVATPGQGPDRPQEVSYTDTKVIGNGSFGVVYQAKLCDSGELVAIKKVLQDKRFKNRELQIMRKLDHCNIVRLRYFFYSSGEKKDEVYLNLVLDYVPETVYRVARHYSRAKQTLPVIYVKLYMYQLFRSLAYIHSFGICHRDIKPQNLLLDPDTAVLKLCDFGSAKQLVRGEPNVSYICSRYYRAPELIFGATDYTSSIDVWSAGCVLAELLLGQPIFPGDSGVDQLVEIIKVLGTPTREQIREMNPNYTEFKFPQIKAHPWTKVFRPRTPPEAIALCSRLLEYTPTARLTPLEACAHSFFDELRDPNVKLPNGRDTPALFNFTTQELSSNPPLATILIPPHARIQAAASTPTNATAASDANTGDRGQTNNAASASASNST
In short: as §1

DYRK2 = target: T1, DYRK2 (Homo sapiens, UniProt Q92630); type: biochemical
T1 sequence (Q92630 1-601): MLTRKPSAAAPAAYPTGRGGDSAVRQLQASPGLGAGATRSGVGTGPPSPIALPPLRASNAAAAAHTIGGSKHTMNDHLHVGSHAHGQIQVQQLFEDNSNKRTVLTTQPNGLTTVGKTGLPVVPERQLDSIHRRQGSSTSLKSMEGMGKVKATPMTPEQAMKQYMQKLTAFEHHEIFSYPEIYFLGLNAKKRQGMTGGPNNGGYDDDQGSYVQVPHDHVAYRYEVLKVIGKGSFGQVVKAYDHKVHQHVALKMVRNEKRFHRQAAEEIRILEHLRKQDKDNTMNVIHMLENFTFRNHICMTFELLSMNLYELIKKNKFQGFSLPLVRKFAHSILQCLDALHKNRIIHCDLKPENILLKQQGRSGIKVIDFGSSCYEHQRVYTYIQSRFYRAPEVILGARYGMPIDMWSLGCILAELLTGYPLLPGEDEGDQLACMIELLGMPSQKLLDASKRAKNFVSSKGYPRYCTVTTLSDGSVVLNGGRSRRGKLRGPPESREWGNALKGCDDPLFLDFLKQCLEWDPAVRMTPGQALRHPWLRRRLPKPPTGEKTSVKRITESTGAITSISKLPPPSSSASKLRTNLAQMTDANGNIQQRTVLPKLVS
In short: as §1

C-TAK1 = C-TAK1 (Homo sapiens, UniProt P27448); type: biochemical
Chain of C-TAK1 (P27448 whole entry): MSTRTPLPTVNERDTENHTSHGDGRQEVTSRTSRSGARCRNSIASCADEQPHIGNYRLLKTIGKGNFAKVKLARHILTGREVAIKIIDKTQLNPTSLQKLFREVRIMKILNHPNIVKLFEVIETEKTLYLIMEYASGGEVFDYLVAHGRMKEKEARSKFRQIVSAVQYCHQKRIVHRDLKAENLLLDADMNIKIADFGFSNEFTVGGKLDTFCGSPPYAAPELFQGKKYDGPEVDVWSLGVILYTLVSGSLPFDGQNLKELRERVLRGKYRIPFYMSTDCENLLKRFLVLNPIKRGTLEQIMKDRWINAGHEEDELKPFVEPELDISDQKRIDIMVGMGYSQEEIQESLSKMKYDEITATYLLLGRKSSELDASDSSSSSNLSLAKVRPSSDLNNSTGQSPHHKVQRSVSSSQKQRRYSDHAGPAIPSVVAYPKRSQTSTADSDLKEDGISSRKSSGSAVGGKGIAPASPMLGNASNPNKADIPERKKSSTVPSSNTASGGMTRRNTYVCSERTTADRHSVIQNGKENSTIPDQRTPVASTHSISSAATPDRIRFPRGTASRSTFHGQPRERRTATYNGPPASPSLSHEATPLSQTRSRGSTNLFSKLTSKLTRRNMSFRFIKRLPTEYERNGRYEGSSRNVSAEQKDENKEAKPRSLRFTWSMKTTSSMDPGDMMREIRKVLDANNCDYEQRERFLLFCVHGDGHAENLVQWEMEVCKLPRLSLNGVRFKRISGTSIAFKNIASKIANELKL
In short: as §1

PRAK = target: T2, PRAK (Homo sapiens, UniProt Q8IW41); type: biochemical
T2 sequence (Q8IW41 1-473): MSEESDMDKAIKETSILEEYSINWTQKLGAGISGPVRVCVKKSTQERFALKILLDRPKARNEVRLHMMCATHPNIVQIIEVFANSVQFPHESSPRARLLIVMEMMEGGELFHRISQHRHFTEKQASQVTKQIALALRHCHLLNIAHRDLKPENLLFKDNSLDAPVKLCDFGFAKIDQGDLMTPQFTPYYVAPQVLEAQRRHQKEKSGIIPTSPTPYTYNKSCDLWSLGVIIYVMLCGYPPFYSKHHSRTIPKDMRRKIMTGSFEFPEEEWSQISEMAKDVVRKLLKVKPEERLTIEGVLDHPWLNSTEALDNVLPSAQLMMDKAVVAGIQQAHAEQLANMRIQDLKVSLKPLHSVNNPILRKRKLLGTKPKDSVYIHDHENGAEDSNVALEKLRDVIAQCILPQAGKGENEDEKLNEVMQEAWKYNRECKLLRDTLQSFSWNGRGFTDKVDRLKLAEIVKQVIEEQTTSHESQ
In short: as §1

NEK2 = target: T3, NEK2 (Homo sapiens, UniProt P51955); type: biochemical
T3 sequence (P51955 1-445): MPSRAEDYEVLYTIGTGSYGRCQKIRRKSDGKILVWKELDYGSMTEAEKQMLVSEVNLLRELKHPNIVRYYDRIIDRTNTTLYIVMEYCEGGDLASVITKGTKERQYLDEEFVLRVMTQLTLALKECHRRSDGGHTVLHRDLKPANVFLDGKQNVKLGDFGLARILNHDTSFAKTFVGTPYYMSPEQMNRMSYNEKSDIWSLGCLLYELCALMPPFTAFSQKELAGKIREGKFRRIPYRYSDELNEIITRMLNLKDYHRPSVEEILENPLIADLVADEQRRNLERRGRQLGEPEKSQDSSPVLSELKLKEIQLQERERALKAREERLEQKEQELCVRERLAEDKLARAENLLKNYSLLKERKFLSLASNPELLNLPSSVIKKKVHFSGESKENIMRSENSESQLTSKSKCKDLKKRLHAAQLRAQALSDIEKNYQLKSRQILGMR
In short: as §1

CDK2/cyclin A = CDK2/cyclin A (Homo sapiens, UniProt P24941); type: biochemical
In short: as §1

CHEK2 = CHEK2 (Homo sapiens, UniProt O96017); type: biochemical
Chain of CHEK2 (O96017 whole entry): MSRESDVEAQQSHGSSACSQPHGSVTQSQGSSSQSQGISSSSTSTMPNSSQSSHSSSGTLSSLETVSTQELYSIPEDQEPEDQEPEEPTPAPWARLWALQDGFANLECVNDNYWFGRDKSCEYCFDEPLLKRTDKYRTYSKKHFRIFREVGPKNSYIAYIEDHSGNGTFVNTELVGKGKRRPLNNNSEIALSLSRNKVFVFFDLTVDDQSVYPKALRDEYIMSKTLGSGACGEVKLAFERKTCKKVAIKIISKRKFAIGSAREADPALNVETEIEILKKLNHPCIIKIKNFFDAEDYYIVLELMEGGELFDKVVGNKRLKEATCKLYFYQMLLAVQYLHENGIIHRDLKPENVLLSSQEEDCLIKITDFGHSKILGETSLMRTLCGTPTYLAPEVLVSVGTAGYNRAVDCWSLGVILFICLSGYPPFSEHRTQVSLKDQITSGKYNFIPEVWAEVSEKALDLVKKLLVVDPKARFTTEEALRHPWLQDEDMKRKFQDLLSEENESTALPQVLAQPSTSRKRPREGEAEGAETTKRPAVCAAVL
In short: as §1

ROCK2 = ROCK2 (Homo sapiens, UniProt O75116); type: biochemical
In short: as §1

MSK1 = MSK1 (Homo sapiens, UniProt O75582); type: biochemical
In short: as §1

CK2 = type: biochemical, human
Description: The following procedures describe the reagent and plate preparation for a HTS of an ATP-utilizing enzyme, such as a protein kinase, run in an off-chip mobility-shift assay format. The following provides an HTS protocol for running a protein kinase HTS screen on a Caliper HTS 250 microfluidics system. The following parameters are dependent on the protein kinase used and can be determined by one skilled in the art as part of a typical assay development process. For example, the peptide substrate used can be identified from the current literature, by screening a peptide library of potential protein kinase substrates, or by other applicable means accepted in the field.
The following table provides typical screen assay parameters appropriate for a Caliper HTS 250 microfluidics system.
The reagents and buffers listed in the following table are generally applicable for developing and running an HTS screen on a human protein kinase using the Caliper HTS 250 system.
The following reagents were prepared using the previously described buffers.
A 2× Master Buffer solution was prepared by combining 200 mL of 1 M HEPES, pH 7.5, 2 mL of 10% Triton X-100, 20 mL of 10% BSA, and 778 mL of H2O.
A 2.5× Substrate Buffer solution was prepared by combining 177.408 mL of 2× Master Buffer, 0.887 mL of 1 mM peptide-X, and 176.521 mL of H2O.
A 1.55× Termination Buffer solution was prepared by combining 762.05 mL of 2× Master Buffer, 95.1 mL of 0.5 M EDTA, and 666.94 mL of H2O. […]
Assays to determine the kinase inhibitory activity of compounds of the present disclosure were performed using a Caliper HTS 250 microfluidics device, Greiner U-bottom assay plates, a Multidrop for transfer of reagents, and Biomek FX (AMNCBM03) software. […] The inhibition of the ATP-utilizing enzyme, such as a particular protein kinase, was determined by measuring the ratio of the peptide substrate to phosphorylated product for each well of the assay plate using the Caliper HTS 250 system. […]

SRC = SRC (Homo sapiens, UniProt P12931); type: biochemical
Chain of SRC (P12931 whole entry): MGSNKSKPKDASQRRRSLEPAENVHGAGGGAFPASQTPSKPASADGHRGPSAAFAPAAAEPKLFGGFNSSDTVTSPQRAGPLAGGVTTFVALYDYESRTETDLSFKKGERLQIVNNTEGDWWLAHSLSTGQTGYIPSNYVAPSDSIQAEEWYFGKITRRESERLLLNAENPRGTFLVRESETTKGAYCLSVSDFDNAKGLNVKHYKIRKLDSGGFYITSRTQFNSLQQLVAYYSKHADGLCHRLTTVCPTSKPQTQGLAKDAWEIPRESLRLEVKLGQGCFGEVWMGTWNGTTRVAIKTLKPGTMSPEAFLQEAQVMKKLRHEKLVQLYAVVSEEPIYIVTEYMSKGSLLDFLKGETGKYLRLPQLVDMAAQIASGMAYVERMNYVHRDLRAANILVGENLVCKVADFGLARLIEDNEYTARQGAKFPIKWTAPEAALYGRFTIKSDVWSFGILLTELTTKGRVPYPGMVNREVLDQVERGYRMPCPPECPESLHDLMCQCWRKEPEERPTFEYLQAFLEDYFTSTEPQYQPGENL
In short: as §1

SYK = SYK (Homo sapiens, UniProt P43405); type: biochemical
In short: as §1

CDK1/cyclin B = CDK1/cyclin B (Homo sapiens, UniProt P06493); type: biochemical
Chain of CDK1/cyclin B (P06493 whole entry): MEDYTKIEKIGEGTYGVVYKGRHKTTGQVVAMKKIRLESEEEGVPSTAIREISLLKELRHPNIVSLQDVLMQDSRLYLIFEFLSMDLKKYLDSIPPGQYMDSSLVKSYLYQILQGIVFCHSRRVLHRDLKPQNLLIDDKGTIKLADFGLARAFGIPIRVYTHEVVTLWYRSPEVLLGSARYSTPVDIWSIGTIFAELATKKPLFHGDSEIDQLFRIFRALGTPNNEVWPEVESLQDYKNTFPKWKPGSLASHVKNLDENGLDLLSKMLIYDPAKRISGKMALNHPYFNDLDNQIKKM
Chain of CDK1/cyclin B (P14635 whole entry partner): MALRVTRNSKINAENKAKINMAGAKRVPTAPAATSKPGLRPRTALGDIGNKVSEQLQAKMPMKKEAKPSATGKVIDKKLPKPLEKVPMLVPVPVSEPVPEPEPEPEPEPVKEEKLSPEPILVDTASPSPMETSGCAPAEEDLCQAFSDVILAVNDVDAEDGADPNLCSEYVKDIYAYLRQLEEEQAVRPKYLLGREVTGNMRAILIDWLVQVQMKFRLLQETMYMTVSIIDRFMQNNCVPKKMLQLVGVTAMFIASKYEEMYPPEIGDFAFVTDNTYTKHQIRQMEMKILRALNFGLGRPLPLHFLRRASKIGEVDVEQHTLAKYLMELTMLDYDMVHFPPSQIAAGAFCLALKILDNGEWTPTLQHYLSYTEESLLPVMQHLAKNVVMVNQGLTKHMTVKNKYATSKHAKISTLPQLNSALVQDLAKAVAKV
In short: as §1

KIT = KIT (Homo sapiens, UniProt P10721); type: biochemical
Chain of KIT (P10721 26-976): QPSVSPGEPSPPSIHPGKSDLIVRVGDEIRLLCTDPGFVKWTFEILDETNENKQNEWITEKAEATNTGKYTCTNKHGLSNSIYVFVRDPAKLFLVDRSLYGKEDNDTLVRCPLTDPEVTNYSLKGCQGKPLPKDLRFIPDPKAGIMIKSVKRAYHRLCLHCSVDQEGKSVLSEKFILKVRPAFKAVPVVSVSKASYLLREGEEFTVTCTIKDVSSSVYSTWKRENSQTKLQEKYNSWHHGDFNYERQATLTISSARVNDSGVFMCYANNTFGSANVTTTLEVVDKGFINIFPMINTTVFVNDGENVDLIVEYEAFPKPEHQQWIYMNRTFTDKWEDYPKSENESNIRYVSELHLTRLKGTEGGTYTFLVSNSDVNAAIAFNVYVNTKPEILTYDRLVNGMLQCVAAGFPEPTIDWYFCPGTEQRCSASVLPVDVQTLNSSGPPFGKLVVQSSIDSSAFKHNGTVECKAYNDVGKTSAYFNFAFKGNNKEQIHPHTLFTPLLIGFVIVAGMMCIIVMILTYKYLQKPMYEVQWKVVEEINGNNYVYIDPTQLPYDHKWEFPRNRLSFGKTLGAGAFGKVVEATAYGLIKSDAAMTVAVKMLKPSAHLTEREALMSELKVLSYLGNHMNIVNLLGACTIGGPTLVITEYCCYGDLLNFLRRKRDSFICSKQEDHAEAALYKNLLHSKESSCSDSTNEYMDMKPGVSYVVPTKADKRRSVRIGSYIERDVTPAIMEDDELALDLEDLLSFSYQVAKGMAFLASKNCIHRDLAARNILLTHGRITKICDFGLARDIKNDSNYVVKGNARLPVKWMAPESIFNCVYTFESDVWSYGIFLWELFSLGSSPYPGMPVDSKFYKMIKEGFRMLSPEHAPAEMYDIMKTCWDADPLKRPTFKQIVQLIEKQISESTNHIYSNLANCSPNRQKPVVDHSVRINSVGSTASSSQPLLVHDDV
In short: as §1

For `CN1CCN(c2ccc(Nc3ccnc4ccc(-c5ccoc5)cc34)cc2)CC1` [6-(furan-3-yl)-N-(4-(4-methylpiperazin-1-yl)phenyl)quinolin-4-amine], the Activity (MAPKAPK2) was “MAPKAPK2”, the Activity (GSK3-α) was “GSK3-α” and the Activity (GSK-3-β) was “GSK-3-β”. For the same compound, the Activity (DYRK2) was “DYRK2”.
For `CN1CCN(c2ccc(Nc3ccnc4ccc(-c5ccc(Cl)c(Cl)c5)cc34)cc2)CC1` [6-(3,4-dichlorophenyl)-N-(4-(4-methylpiperazin-1-yl)phenyl)quinolin-4-amine], the Activity (MAPKAPK2) was “MAPKAPK2”, the Activity (C-TAK1) was “C-TAK1” and the Activity (PRAK) was “PRAK”. The Activity (NEK2) was “NEK2”, the Activity (CDK2/cyclin A) was “CDK2/cyclin A” and the Activity (CHEK2) was “CHEK2”.
`CN1CCN(c2ccc(Nc3ccnc4ccc(-c5ccc(C(N)=O)cc5)cc34)cc2)CC1` [4-(4-(4-(4-methylpiperazin-1-yl)phenylamino)quinolin-6-yl)benzamide] was tested, and the Activity (MAPKAPK2) was “MAPKAPK2”, the Activity (PRAK) was “PRAK” and the Activity (NEK2) was “NEK2”. The Activity (DYRK2) was “DYRK2” and the Activity (ROCK2) was “ROCK2”.
With `CN1CCN(c2ccc(Nc3ccnc4ccc(-c5cccc(OCc6ccccc6)c5)cc34)cc2)CC1` [6-(3-(benzyloxy)phenyl)-N-(4-(4-methylpiperazin-1-yl)phenyl)quinolin-4-amine] the Activity (MAPKAPK2) was “MAPKAPK2”, the Activity (C-TAK1) was “C-TAK1” and the Activity (PRAK) was “PRAK”. For the same compound, the Activity (CDK2/cyclin A) was “CDK2/cyclin A” and the Activity (CHEK2) was “CHEK2”.
For `CN1CCN(c2ccc(Nc3ccnc4ccc(-c5ccc(F)c(Cl)c5)cc34)cc2)CC1` [6-(3-chloro-4-fluorophenyl)-N-(4-(4-methylpiperazin-1-yl)phenyl)quinolin-4-amine], the Activity (MAPKAPK2) was “MAPKAPK2”, the Activity (C-TAK1) was “C-TAK1” and the Activity (MSK1) was “MSK1”. For the same compound, the Activity (PRAK) was “PRAK” and the Activity (NEK2) was “NEK2”.
In the case of `CN1CCN(c2ccc(Nc3ccnc4ccc(-c5cccc(C(=O)O)c5)cc34)cc2)CC1` [3-(4-(4-(4-methylpiperazin-1-yl)phenylamino)quinolin-6-yl)benzoic acid], the Activity (MAPKAPK2) was “MAPKAPK2”, the Activity (PRAK) was “PRAK” and the Activity (CK2) was “CK2”.
`CN1CCN(c2ccc(Nc3ccnc4ccc(-c5ccc(OCc6ccccc6)c(F)c5)cc34)cc2)CC1` [6-(4-(benzyloxy)-3-fluorophenyl)-N-(4-(4-methylpiperazin-1-yl)phenyl)quinolin-4-amine] was tested, and the Activity (MAPKAPK2) was “MAPKAPK2”, the Activity (C-TAK1) was “C-TAK1” and the Activity (SRC) was “SRC”. For the same compound, the Activity (SYK) was “SYK”.
`CN1CCN(c2ccc(Nc3ccnc4ccc(-c5cccs5)cc34)cc2)CC1` [N-(4-(4-methylpiperazin-1-yl)phenyl)-6-(thiophen-2-yl)quinolin-4-amine] was tested, and the Activity (MAPKAPK2) was “MAPKAPK2”, the Activity (GSK3-α) was “GSK3-α” and the Activity (PRAK) was “PRAK”. The Activity (CDK2/cyclin A) was “CDK2/cyclin A” and the Activity (CHEK2) was “CHEK2”.
With `CN1CCN(c2ccc(Nc3ccnc4ccc(-c5ccccc5C(F)(F)F)cc34)cc2)CC1` [N-(4-(4-methylpiperazin-1-yl)phenyl)-6-(2-(trifluoromethyl)phenyl)quinolin-4-amine] the Activity (MAPKAPK2) was “MAPKAPK2”, the Activity (PRAK) was “PRAK” and the Activity (NEK2) was “NEK2”. The Activity (CK2) was “CK2”.
With `CNC1CCN(c2ccc(Nc3ccnc4ccc(-c5ccc(C#N)cc5)cc34)cc2)C1` (centres unmarked) [4-(4-(4-(3-(methylamino)pyrrolidin-1-yl)phenylamino)quinolin-6-yl)benzonitrile] the Activity (PRAK) was “PRAK”, the Activity (CDK1/cyclin B) was “CDK1/cyclin B” and the Activity (KIT) was “KIT”.
